Reference: patent publication US12636319B2, “Pharmaceutical composition for preventing or treating atopic disease containing Akkermansia muciniphila strain” (ENTEROBIOME INC., priority 2020, dated 2026)
In brackets after ≈: the same amount, converted by molar mass.

How the values were obtained:
[1] = tested on: Akkermansia muciniphila ATCC BAA-835; assay: MIC by CLSI broth microdilution, type strain; assay type: cell-based; conditions: ATCCBAA835, test strain ATCC BAA-835
[2] = tested on: Akkermansia muciniphila EB-AMDK19; assay: MIC by CLSI broth microdilution, isolated strain; assay type: cell-based; conditions: EBAMDK19, test strain EB-AMDK19
[3] = tested on: Bacteroides thetiotaomicron ATCC 29741; assay: MIC by CLSI broth microdilution, QC strain; assay type: cell-based
IgE = assay: Serum IgE concentration by ELISA; assay type: in vivo, mouse
Method: (§1) The Akkermansia muciniphila ATCC BAA-835 strain and Akkermansia muciniphila EB-AMDK19 live bacteria used in this experiment were prepared at a concentration of 1×10^8 CFU/150 μl PBS (25% glycerol, 0.05% cysteine/PBS).
(§2) To observe atopic dermatitis lesions, 6-week-old NC/Nga mice (weighed about 21 to 25 g, SLC, Inc., Japan) were purchased from Daehan Biolink Co., Ltd. (Chungbuk, Korea). Animal tests were carried out in accordance with the Animal use and Care Protocol of the Institutional Animal Care and Use Committee (IACUC). The animals were acclimated for one week, and then raised for 9 weeks at a constant temperature of 22° C. and a relative humidity of 50 to 60% with a 12-hr light/12-hr dark cycle.
(§3) The backs of 6-week-old NC/Nga mice were shaved clean, and then left to stand for 24 hours so that fine wounds of the skin were healed. 1% 2,4-dinitrochlorobenzene (DNCB) solution (Sigma-Aldrich Korea) was applied to the back of each mouse twice a week for 3 weeks to induce an immune response, and then 0.5% DNCB solution was applied twice a week to induce contact dermatitis. […]
At the end of the experiment, each of the mice was anesthetized with CO2 and blood was collected by cardiac puncture. The collected blood was centrifuged at 10,000 rpm for 5 minutes to separate the serum, and the serum IgE concentration was measured. […]

[4] = tested on: DNCB-induced atopic dermatitis in NC/Nga mice; assay: Scratching frequency in DNCB-induced atopic dermatitis; assay type: in vivo, mouse; conditions: scratching for 10 minutes, day before end; compared to the atopic dermatitis-induced group
Method: as §1, §2, §3
The day before the end of the experiment, the frequency of scratching the affected area due to itching was measured. For measurement of the frequency of scratching, each mouse was acclimated for 10 minutes, and then the frequency of scratching for 10 minutes was measured using a counter.

[5] = tested on: DNCB-induced atopic dermatitis in NC/Nga mice; assay: Ear edema (ear thickness) in DNCB-induced atopic dermatitis; assay type: in vivo, mouse; conditions: at 6 weeks; normal group 0.55 mm, atopic dermatitis-induced group 1.50 mm
Method: as §1, §2, §3
After severe atopic dermatitis was induced, the mice after completion of the experiment were sacrificed by anesthetizing with CO2, and then the degree of edema of both ears was measured by the velocity transformation technique using a thickness gauge (Digimatic thickness gauge, 547-301, Mitutoyo, Japan).

Th2/Th1 cytokines = assay: Ratio of Th2/Th1 serum cytokines; assay type: in vivo, mouse; conditions: compared to the atopic dermatitis-induced group
Method: as §1
as §2, with “cycle. […]” for “cycle.”
At the end of the experiment, the mice were anesthetized with CO2, and blood was collected by cardiac puncture. […] The concentrations of IL-4, IL-12, IFN-γ and IL-6 cytokines were measured using an ELISA kit (Invitrogen, CA, USA), and the results of the measurement are shown in FIGS. 17(A), 17(B), 18(A), and 18(B).
From an immunological point of view, atopic dermatitis is a disease caused by an excessive imbalance between Th1 and Th2 immune responses. Thus, the cytokine concentrations measured as described above were expressed as the ratio of Th2/Th1 cytokines, and the results are shown in FIGS. 19(A), 19(B), 20(A), and 20(B).

[6] = tested on: DNCB-induced atopic dermatitis in NC/Nga mice; assay: Dermatitis score (modified SCORAD) in DNCB-induced atopic dermatitis; assay type: in vivo, mouse; conditions: week 6, compared to the atopic dermatitis-induced group; oral daily
Method: as §1, §2
(§4) The backs of 6-week-old NC/Nga mice were shaved clean, and then left to stand for 24 hours so that fine wounds of the skin were healed. […]
After atopic dermatitis was induced by DNCB, treatment was performed by administering a preparation containing each of dexamethasone (DEX), the ATCC BAA-835 strain and the EB-AMDK19 strain for 6 weeks. […] Skin dryness, edema, erythema/hemorrhage, and erosion/excoriation were scored as follows: no symptoms=0, weak symptoms=1, moderate symptoms=2, and severe symptoms=3.

[7] = tested on: DNCB-induced atopic dermatitis in NC/Nga mice; assay: Spleen weight in DNCB-induced atopic dermatitis; assay type: in vivo, mouse; conditions: end of experiment; compared to the atopic dermatitis-induced group
Method: as §1, §2, §4
Thus, the weight of the spleen was measured to observe the effect of the composition for preventing atopic dermatitis on the immune organs of NC/Nga mice with atopic dermatitis induced by DNCB. […] The collected spleen tissues were washed with physiological saline, and then the sizes thereof were visually observed and the weights thereof were measured using a microbalance.

Compound | MIC [1] [µg/mL] | MIC [2] [µg/mL] | MIC ([3]; Bacteroides, ATCC29741) [µg/mL] | further results
O=C(N[C@H](CO)[C@H](O)c1ccc([N+](=O)[O-])cc1)C(Cl)Cl [CHL, chloramphenicol] | 4 (≈ 12.4 µM) | 4 (≈ 12.4 µM) | 8 (≈ 24.8 µM) | 
CCC[C@@H]1C[C@@H](C(=O)N[C@@H]([C@H]2O[C@H](SC)[C@H](O)[C@@H](O)[C@H]2O)[C@H](C)Cl)N(C)C1 [CLI, clindamycin] | ≤ 0.125 | 4 (≈ 9.41 µM) |  | 
CO/N=C(\C(=O)N[C@@H]1C(=O)N2C(C(=O)O)=CCS[C@H]12)c1csc(N)n1 [CTZ, ceftizoxime] | 2 (≈ 5.22 µM) | 1 (≈ 2.61 µM) | 16 (≈ 41.7 µM) | 
C[C@@H]1C[C@H]2[C@@H]3CCC4=CC(=O)C=C[C@]4(C)[C@@]3(F)[C@@H](O)C[C@]2(C)[C@@]1(O)C(=O)CO [DEX, dexamethasone] |  |  |  | serum IgE decrease (IgE; compared to the atopic dermatitis-induced group): 40.70%; serum IgE concentration (IgE; end of experiment, ELISA): 11891.34 ng/mL; decrease in scratching frequency [4]: about 59.4%; ear edema [5]: 1.00 mm; decrease of IL-6/IFN-γ ratio (Th2/Th1 cytokines): 12.7%; decrease of IL-6/IL-12 ratio (Th2/Th1 cytokines): 34.5%; decrease in dermatitis score [6]: 38.4%; decrease in spleen weight [7]: 23.3%
C[C@@H](O)[C@H]1C(=O)N2C(C(=O)O)=C(S[C@@H]3CN[C@H](C(=O)N(C)C)C3)[C@H](C)[C@H]12 [MEM, meropenem] | 1 (≈ 2.61 µM) | 0.5 (≈ 1.3 µM) | 0.5 (≈ 1.3 µM) | 
Cc1ncc([N+](=O)[O-])n1CCO [MTZ, metronidazole] | ≤ 0.25 | 0.5 (≈ 2.92 µM) | 2 (≈ 11.7 µM) | 
COc1c(N2C[C@@H]3CCCN[C@@H]3C2)c(F)cc2c(=O)c(C(=O)O)cn(C3CC3)c12 [MXF, moxifloxacin] | > 32 | > 32 | 8 (≈ 19.9 µM) | 
Piperacillin-tazobactam [PTZ] |  |  |  | MIC ([3]; QC strain ATCC 29741, broth microdilution, CLSI): 8/4
